Assay results taken from patent publication US20250320213A1, “Nitrogen-Containing Heterocyclic Compounds” (Pfizer Inc., priority 2024, published 2025).

Legend:
[1] = test system: CCL17 secretion in peripheral human whole blood; experiment: Human Whole Blood (HWB) CCL17 TR-FRET Assay (IL-13 stimulated CCL17 secretion); assay type: cell-based; conditions: human whole blood, IL-13 stimulated
Summary of the method: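 TR-FRET sandwich immunoassay (665/615 nm ratio) read CCL17 in serum from heparinized whole blood after 16 h RT detection. Blood was exposed to compound for 2 h at 37 °C, then to 10 ng/mL IL-13 (final) for 48 h. IC50 from 11-point, 3-fold titrations in duplicate.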

[2] = biological target: T1, STAT6 (Homo sapiens, UniProt P42226); experiment: STAT6 Reporter Luciferase Assay (IL-13 stimulated HaCaT keratinocyte NanoLuc reporter cells); assay type: cell-based; conditions: IL-13 stimulated HaCaT STAT6 NanoLuc reporter cells; read-out: Reporter EC50
T1 construct: stably transfected HaCaT keratinocyte cell line, which expresses NanoLuc luciferase reporter gene under the transcriptional control of the STAT6 responsive promoter; endogenous in cells; host or cells: HaCaT keratinocyte reporter cell line (stably transfected with a NanoLuc reporter)
T1 sequence (P42226 1-847): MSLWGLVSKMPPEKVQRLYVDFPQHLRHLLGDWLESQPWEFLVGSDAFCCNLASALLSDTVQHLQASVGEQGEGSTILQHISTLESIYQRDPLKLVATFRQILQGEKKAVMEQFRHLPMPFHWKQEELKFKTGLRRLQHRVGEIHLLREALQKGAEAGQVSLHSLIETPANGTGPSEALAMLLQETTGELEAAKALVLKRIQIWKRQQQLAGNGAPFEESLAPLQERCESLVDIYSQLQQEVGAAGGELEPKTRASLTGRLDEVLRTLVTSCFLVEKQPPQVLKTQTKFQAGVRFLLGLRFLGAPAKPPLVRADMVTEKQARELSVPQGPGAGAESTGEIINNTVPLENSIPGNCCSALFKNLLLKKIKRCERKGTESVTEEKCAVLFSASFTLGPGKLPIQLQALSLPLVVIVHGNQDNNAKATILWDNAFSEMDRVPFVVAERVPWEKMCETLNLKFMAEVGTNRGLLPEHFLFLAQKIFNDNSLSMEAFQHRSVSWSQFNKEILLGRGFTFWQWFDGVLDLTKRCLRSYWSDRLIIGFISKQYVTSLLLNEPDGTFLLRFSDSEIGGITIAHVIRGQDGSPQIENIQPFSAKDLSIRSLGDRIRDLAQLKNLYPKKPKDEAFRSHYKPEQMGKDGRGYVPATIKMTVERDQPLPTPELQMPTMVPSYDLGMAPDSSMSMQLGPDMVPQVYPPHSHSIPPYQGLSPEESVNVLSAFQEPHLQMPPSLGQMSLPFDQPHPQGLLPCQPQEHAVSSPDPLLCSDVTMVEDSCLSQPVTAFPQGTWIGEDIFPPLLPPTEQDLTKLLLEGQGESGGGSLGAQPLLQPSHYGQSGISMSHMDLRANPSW
Summary of the method: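 Compounds were tested as 11-point, 4-fold series in duplicate, applied for 2 h at 37 °C in low-serum (2% FBS) DMEM. The cells were a stable HaCaT line with NanoLuc under a STAT6-responsive IL-13Ra2 promoter. After 4 h with 0.12 nM IL-13, Nano-Glo luminescence was measured.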

IC50 ([1]; 48 hours) | EC50 [2] | IC50 ([1]; Homo sapiens, 48 h) | SMILES
20 nM | 1 nM |  | CNC(=O)c1ccc(CNC(=O)c2nn(C(C)C)c3c2CN(c2ccc(C(=O)N(C)C)cn2)CC3C(F)(F)F)cc1 (single isomer, unassigned) [Example 357, rel-(R or S)-5-(5-(dimethylcarbamoyl)pyridin-2-yl)-1-isopropyl-N-(4-(methylcarbamoyl)benzyl)-7-(trifluoromethyl)-4,5,6,7-tetrahydro-1H-pyrazolo[4,3-c]pyridine-3-carboxamide]
869 nM | 358 nM |  | CC(CO)n1nc(C(=O)NCc2ccc(NC(=O)N(C)C)cc2)c2c1CCN(c1ccc(C(=O)N(C)C)cn1)C2 (single isomer, unassigned) [Example 359, rel-(R or S)-5-(5-(dimethylcarbamoyl)pyridin-2-yl)-N-(4-(3,3-dimethylureido)benzyl)-1-(1-hydroxypropan-2-yl)-4,5,6,7-tetrahydro-1H-pyrazolo[4,3-c]pyridine-3-carboxamide]
91 nM | 74 nM |  | CC(CO)n1nc(C(=O)NCc2ccc(NC(=O)N(C)C)cc2)c2c1CCN(c1ccc(C(=O)N(C)C)cn1)C2 (single isomer, unassigned) [Example 360, rel-(R or S)-5-(5-(dimethylcarbamoyl)pyridin-2-yl)-N-(4-(3,3-dimethylureido)benzyl)-1-(1-hydroxypropan-2-yl)-4,5,6,7-tetrahydro-1H-pyrazolo[4,3-c]pyridine-3-carboxamide]
 | 158 nM | > 4080 nM | CC(C)n1nc(C(=O)NCc2ccc(NC(=O)N(C)C)cc2)c2c1CCN(c1ccc(C3CCCO3)cn1)C2 (single isomer, unassigned) [Example 361, rel-(R or S)-N-(4-(3,3-dimethylureido)benzyl)-1-isopropyl-5-(5-(tetrahydrofuran-2-yl)pyridin-2-yl)-4,5,6,7-tetrahydro-1H-pyrazolo[4,3-c]pyridine-3-carboxamide]
> 3490 nM | 838 nM |  | CC(C)n1nc(C(=O)NCc2ccc(NC(=O)N(C)C)cc2)c2c1CCN(c1ccc(C3CCCO3)cn1)C2 (single isomer, unassigned) [Example 362, rel-(R or S)-N-(4-(3,3-dimethylureido)benzyl)-1-isopropyl-5-(5-(tetrahydrofuran-2-yl)pyridin-2-yl)-4,5,6,7-tetrahydro-1H-pyrazolo[4,3-c]pyridine-3-carboxamide]
 | 740 nM | 2170 nM | CN(C)C(=O)Nc1ccc(CNC(=O)c2nn(C)c3c2CN(c2ccc(C(=O)N(C)C)cn2)CC3C(F)(F)F)cc1 (single isomer, unassigned) [Example 391, rel-(R or S)-5-(5-(dimethylcarbamoyl)pyridin-2-yl)-N-(4-(3,3-dimethylureido)benzyl)-1-methyl-7-(trifluoromethyl)-4,5,6,7-tetrahydro-1H-pyrazolo[4,3-c]pyridine-3-carboxamide]
 | 568 nM | 1080 nM | CN(C)C(=O)Nc1ccc(CNC(=O)c2nn(C)c3c2CN(c2ncc(C(=O)N(C)C)cn2)CC3C(F)(F)F)cc1 (single isomer, unassigned) [Example 392, rel-(R or S)-5-(5-(dimethylcarbamoyl)pyrimidin-2-yl)-N-(4-(3,3-dimethylureido)benzyl)-1-methyl-7-(trifluoromethyl)-4,5,6,7-tetrahydro-1H-pyrazolo[4,3-c]pyridine-3-carboxamide]
 | > 8750 nM | > 30000 nM | CC(C)n1nc(C(=O)NCc2ccc(NC(=O)N(C)C)cc2)c2c1CCN(c1ccc(C3CCCCO3)cn1)C2 (single isomer, unassigned) [Example 393, rel-(R or S)-N-(4-(3,3-dimethylureido)benzyl)-1-isopropyl-5-(5-(tetrahydro-2H-pyran-2-yl)pyridin-2-yl)-4,5,6,7-tetrahydro-1H-pyrazolo[4,3-c]pyridine-3-carboxamide]
> 30000 nM | > 7660 nM |  | CC(C)n1nc(C(=O)NCc2ccc(NC(=O)N(C)C)cc2)c2c1CCN(c1ccc(C3CCCCO3)cn1)C2 (single isomer, unassigned) [Example 394, rel-(R or S)-N-(4-(3,3-dimethylureido)benzyl)-1-isopropyl-5-(5-(tetrahydro-2H-pyran-2-yl)pyridin-2-yl)-4,5,6,7-tetrahydro-1H-pyrazolo[4,3-c]pyridine-3-carboxamide]
140 nM | 17 nM |  | CCc1nc(C(=O)NCc2ccc(NC(=O)N(C)C)cc2)c2n1C(C)CN(c1ccc(C(=O)N(C)C)cc1)C2 (single isomer, unassigned) [Example 428, rel-(R or S)-7-(4-(dimethylcarbamoyl)phenyl)-N-(4-(3,3-dimethylureido)benzyl)-3-ethyl-5-methyl-5,6,7,8-tetrahydroimidazo[1,5-a]pyrazine-1-carboxamide]
6 nM | 1 nM |  | CCc1nc(C(=O)NCc2ccc(NC(=O)N(C)C)cc2)c2n1C(C)CN(c1ccc(C(=O)N(C)C)cc1)C2 (single isomer, unassigned) [Example 429, rel-(R or S)-7-(4-(dimethylcarbamoyl)phenyl)-N-(4-(3,3-dimethylureido)benzyl)-3-ethyl-5-methyl-5,6,7,8-tetrahydroimidazo[1,5-a]pyrazine-1-carboxamide]
 | 158 nM | 1380 nM | C[C@H]1c2c(C(=O)NCc3ccc(NC(=O)N(C)C)cc3)nn(C)c2CCN1c1ccc(C(=O)N(C)C)cn1 (single isomer, unassigned) [Example 444]
 | 2 nM | 21 nM | C[C@@H]1c2c(C(=O)NCc3ccc(NC(=O)N(C)C)cc3)nn(C)c2CCN1c1ccc(C(=O)N(C)C)cn1 (single isomer, unassigned) [Example 445]
 | 15 nM | 80 nM | CCn1nc(C(=O)NCc2ccc(NC(=O)N(C)C)cc2)c2c1[C@H](C)[C@@H](C)N(c1ncc(C(=O)N(C)C)cn1)C2 (single isomer, unassigned) [Example 446]
 | 0.4 nM | > 413 nM | CCn1nc(C(=O)NCc2ccc(NC(=O)N(C)C)cc2)c2c1[C@@H](C)[C@H](C)N(c1ncc(C(=O)N(C)C)cn1)C2 (single isomer, unassigned) [Example 447]
 | 13 nM | > 30000 nM | CC(C)n1nc(C(=O)NCc2ccc(NC(=O)N(C)C)cc2)c2c1[C@H](C)[C@@H](C)N(c1ncc(C(=O)N(C)C)cn1)C2 (single isomer, unassigned) [Example 448]
 | 0.2 nM | 4 nM | CC(C)n1nc(C(=O)NCc2ccc(NC(=O)N(C)C)cc2)c2c1[C@@H](C)[C@H](C)N(c1ncc(C(=O)N(C)C)cn1)C2 (single isomer, unassigned) [Example 449]
< 1 nM | 0.2 nM |  | CC(C)n1nc(C(=O)NCc2ccc(NC(=O)N(C)C)cc2)c2c1C(C(F)(F)F)CN(c1ncc(C(=O)N(C)C)cn1)C2 (single isomer, unassigned) [Example 461, rel-(R or S)-5-(5-(dimethylcarbamoyl)pyrimidin-2-yl)-N-(4-(3,3-dimethylureido)benzyl)-1-isopropyl-7-(trifluoromethyl)-4,5,6,7-tetrahydro-1H-pyrazolo[4,3-c]pyridine-3-carboxamide]
376 nM | 38.7 nM |  | CC(C)n1nc(C(=O)NCc2ccc(NC(=O)N(C)C)cc2)c2c1C(C(F)(F)F)CN(c1ncc(C(=O)N(C)C)cn1)C2 (single isomer, unassigned) [Example 462, rel-(R or S)-5-(5-(dimethylcarbamoyl)pyrimidin-2-yl)-N-(4-(3,3-dimethylureido)benzyl)-1-isopropyl-7-(trifluoromethyl)-4,5,6,7-tetrahydro-1H-pyrazolo[4,3-c]pyridine-3-carboxamide]
2 nM | 0.2 nM |  | CCn1nc(C(=O)NCc2ccc(NC(=O)N(C)C)cc2)c2c1C(C(F)(F)F)CN(c1ncc(C(=O)N(C)C)cn1)C2 (single isomer, unassigned) [Example 464, rel-(R or S)-5-(5-(dimethylcarbamoyl)pyrimidin-2-yl)-N-(4-(3,3-dimethylureido)benzyl)-1-ethyl-7-(trifluoromethyl)-4,5,6,7-tetrahydro-1H-pyrazolo[4,3-c]pyridine-3-carboxamide]
